# Measured values as given in patent US20250090614A1, “COMPOSITIONS AND METHODS FOR IMPROVING LUNG FUNCTION” (priority 2023, published 2025).
# What was measured:
# [1] = system: Laminin; assay: Laminin ELISA in lung tissue supernatant of aged mice; format: in vivo, mouse; details: aged C57BL/6 mice, 25 mg/kg p.o. each substance, 90 days
# Protocol: The experiments were performed in old C57b1/6 mice (28-30 weeks). Table 1 discloses the groups of mice used for the experimentation. C57BL/6 mice were bred and naturally aged in a pathogen-free colony. Mice were group-housed six per cage for the treatment regimen and maintained on a 12-hr light-dark schedule with ad libitum access to food and water. All experiments were designed according to the principles of animal use for gerontological research (Miller, R. A., & Nadon, N. L. (2000). Principles of animal use for gerontological research. Journals of Gerontology. Series A, Biological Sciences and Medical Sciences, 55, B117-B123) [table] The above test substances were administered to the mice for a period of 90 days. Rapamycin was used as a positive control. After 90 days of administration experiments were performed to assess the respiratory muscle function, anatomical changes, cellular senescence and immunological changes. Hyperinflation of the lungs may occur with ageing along with destruction of lung parenchyma or loss of supporting structures within the lung parenchyma (Gillooly M, Lamb D. Airspace size in lungs of lifelong non-smokers: effect of age and sex. Thorax. 1993; 48:39-43). […] Laminin was measured using commercially available ELISA Kit (AbCam ELISA Kit) according to the user's manual provided. […]
# [2] = system: Immunoglobulin A (IgA); assay: IgA ELISA in bronchoalveolar lavage fluid of aged mice; format: in vivo, mouse; details: aged C57BL/6 mice, 25 mg/kg p.o. each substance, 90 days
# Protocol: The experiments were performed in old C57b1/6 mice (28-30 weeks). Table 1 discloses the groups of mice used for the experimentation. C57BL/6 mice were bred and naturally aged in a pathogen-free colony. Mice were group-housed six per cage for the treatment regimen and maintained on a 12-hr light-dark schedule with ad libitum access to food and water. All experiments were designed according to the principles of animal use for gerontological research (Miller, R. A., & Nadon, N. L. (2000). Principles of animal use for gerontological research. Journals of Gerontology. Series A, Biological Sciences and Medical Sciences, 55, B117-B123) [table] The above test substances were administered to the mice for a period of 90 days. Rapamycin was used as a positive control. After 90 days of administration experiments were performed to assess the respiratory muscle function, anatomical changes, cellular senescence and immunological changes. Bronchoalveolar lavage (BAL) fluids in healthy older subjects have consistently shown an increased proportion of neutrophils and lower percentage of macrophages compared with younger adults. There is age-associated decline in immunoglobins IgA and IgM. […] Immunoglobulin A (IgA) is the most abundant Ig in mucosac where it plays key roles in host defense against pathogens and in mucosal immunoregulation. […]
compound,measurement,setting,value
O=C(/C=C/c1ccc(O)c(O)c1)O[C@H](Cc1ccc(O)c(O)c1)C(=O)O [Rosmarinic acid],expression of laminin,[1],increased
same,expression of IgA,[2],increased
